Assay results taken from patent publication US12251370B2, “Small molecule inhibitors of the BfrB:Bfd interaction” (BOARD OF SUPERVISORS OF LOUISIANA STATE UNIVERSITY AND …, priority 2018, dated 2025).
Entries after “also recorded” stand apart in the source; their conditions may differ.

Legend:
[1] = test system: A. baumannii; assay: Growth curves and IC50 determination in A. baumannii; assay type: cell-based, Acinetobacter baumannii (AB5075); conditions: Acinetobacter baumannii; AB5075; modified M63 media; 48 well-plates
Method: Pre-cultures (5 mL LB media) were grown for 12 h at 37° C. and 220 rpm in 50 mL conical tubes (VWR International, PA) covered with an air permeable membrane. The cells were then centrifuged at 4,000 rpm for 10 min, the resultant cell pellets washed twice in M63 media and then diluted in M63 media to OD600=0.01. Stock solutions (100 mM) of analog in DMSO were prepared weekly and stored at 4° C. Prior to initiating experiments in 96 well plates, the analog stock solution was serially diluted to make 10 mM or 1 mM working solutions in DMSO. A small volume of the appropriate working solution was transferred to a glass vial, diluted with DMSO to 30 μL, and then diluted to a final volume of 1.5 mL with pre-culture cell suspension with an OD600=0.01. The resultant cell suspension (200 μL) was transferred to a clear-bottom polystyrene 96 well plate (VWR), and incubated at 35° C. and 205 cpm for 13 h in an Epoch 2 microplate spectrophotometer (Biotek Instruments, Inc., Vermont). The growth curve in the presence of Ciprofloxacin was obtained in the same plate. […] MIC determinations were carried out using standard broth microdilution methods in 48 well plates and modified M63 media. Cells were incubated at 35° C.
This idea was tested with A. baumanni AB5075, a highly virulent isolate, which has been proposed as a model strain for the evaluation of pathogenesis and antimicrobial treatments.^66.

[2] = test system: iron mobilization from BfrB in P. aeruginosa; assay: Imaging of iron stored in BfrB and analysis of total iron levels; assay type: cell-based, Pseudomonas aeruginosa; conditions: analog 125 μM, M63 + 4 μM Fe
Method: The resultant cell suspensions (5 mL) were mixed with a small volume of a 10 mM working solution of analog 16 in DMSO to give a 125 μM solution and 2% DMSO, or simply 2% DMSO (control). The conical tubes were covered with a sterile air permeable membrane and the cultures incubated at 35° C. and 120 rpm for 6, 9, 12, 15, 18, 21 and 24 h. Prior to separating the cells by centrifugation (4,000 rpm, 15 min), a 100 μL aliquot was withdrawn from each conical tube and serially diluted for plating and enumerating viable cells. The separated pellet was washed with 5 mL of PBS and frozen at −20° C. for subsequent analysis. The corresponding cell free supernatants were used for iron analysis in the spent media, as described below. […]
To determine the total iron levels of cells treated with analog 16 or DMSO only (control), 5 mL cultures were grown in M63 media supplemented with 4 μM iron, as described above, and analyzed at 12, 15, 21, 24, and 28 h. […] Cell pellets were washed twice with 10 mL of PBS and the total levels of cellular iron were measured using a published protocol.^18, 48 In brief, cell pellets were mixed with 500 μL of freshly prepared digestion reagent (1:1 v/v 1.2 N HCl and 4.5% w/v KMnO4 in water), thoroughly mixed by vortexing, and incubated at 65° C. for 4 h. […]

[3] = test system: P. aeruginosa clinical isolate MR3B; assay: Effect of analog on ciprofloxacin potency, clinical isolate MR3B; assay type: cell-based, Pseudomonas aeruginosa
Method: (§1) The combined treatment was carried out similarly, ensuring that the final concentration of DMSO was 2%.

[4] = test system: P. aeruginosa clinical isolate MR60; assay: Effect of analog on ciprofloxacin potency, clinical isolate MR60; assay type: cell-based, Pseudomonas aeruginosa
Method: as §1

## O=C1NC(=O)c2c(NCCCc3cccc(O)c3)cccc21 [Analog 16, 4-((3-(3-Hydroxyphenyl)propyl)amino)isoindoline-1,3-dione]
[1]
  IC50: 128 µM
[2]
  iron mobilization from BfrB (native PAGE stained with Ferene S): significant inhibition of iron mobilization from BfrB; also recorded: much slower (inhibited) mobilization of iron from BfrB
[2]; all time points
  viable cells, fold fewer than untreated control: approximately 2.5 fold
[3]; analog 16 + ciprofloxacin
  survival, fold lower relative to ciprofloxacin alone: approximately 20 fold
[3]; analog 16 + ciprofloxacin 0.2 μg/mL
  survival: 0.5%
[3]; analog 16 only, 125 μM
  survival: ca. 50%
[4]; analog 16 + ciprofloxacin
  survival, fold lower relative to ciprofloxacin alone: approximately 4 fold
[4]; analog 16 + ciprofloxacin 1 μg/mL
  survival: ca. 10%
[4]; analog 16 only, 125 μM
  survival: ca. 40%
